Measurements published in US20130344501A1, “METHODS FOR PRODUCING THREE-DIMENSIONAL PHYSIOLOGICALLY RELEVANT IMMUNE TISSUE SYSTEMS UNDER LOW FLUID SHEAR CONDITIONS” (priority 2010, published 2013).

Experiments:
[1] = test system: ICAM-1 on U937 cells; test: ICAM-1 labeling of PMA-differentiated U937 macrophages, confocal laser scanning microscopy; type: cell-based, human; details: U937 monocytes exposed to 10^−8M PMA for 48 hours; monocytes alone stained weakly positive
Description: (§1) To obtain differentiated macrophages, U937 monocytes were exposed to 10^−8M PMA (originating from a 10^−3M stock in DMSO) (Sigma-Aldrich) for 48 hours. Exposure of monocytes to phorbol esters induces morphological, physiological and molecular characteristics of terminally differentiated macrophages (Rovera et al., 1979, Prieto et al., 1994). For CLSM staining purposes, monocytes were differentiated with PMA and A549 cells were grown in 6-well plates containing sterile coverslips. For CLSM staining of undifferentiated U937, cytodex-3 beads (5 mg/ml) were added to the culture medium, allowing adhesion of U937 to the beads and facilitation of the staining procedure.
The antibodies used for CLSM imaging in the present study were from mouse origin and targeted the human CD45 (Abcam), ICAM-1 (Abcam), MUC5AC (Invitrogen), ZO-1 (Invitrogen) and β-catenin (Chemicon). All primary antibodies were used in a dilution of 1:50. ICAM-1 was the only directly labeled antibody used for CLSM staining and was conjugated with phycoerythrin (PE). […]
Optical sections of the three-dimensional aggregates and monolayers were obtained using a Zeiss LSM 510 Duo laser scanning microscope equipped with detectors and filter sets for monitoring emissions of the selected fluorophores. Images were acquired using a Plan-Neofluar 40×/1.3 oil DIC objective and were analyzed with the Zeiss LSM software package. […]

[2] = test system: U937 cells; test: Phagocytosis of 2 μm fluorescent beads by PMA-differentiated U937 macrophages; type: cell-based, human; details: U937 monocytes exposed to 10^−8M PMA for 48 hours; undifferentiated monocytes could not phagocytose
Description: as §1
The phagocytosis activity of monocytes and macrophages cultured alone or co-cultured with A549 cells in three-dimensional was assessed based on the uptake of bacterial-sized 2 μm fluorescent […] beads (Fluoresbrite plain YG, Polysciences). The phagocytosis assay was performed as previously described (Gao et al., 2010).

CCCCCCCCCCCCCC(=O)O[C@@H]1[C@@H](C)[C@@]2(O)[C@@H](C=C(CO)C[C@]3(O)C(=O)C(C)=C[C@@H]23)[C@@H]2C(C)(C)[C@]12OC(C)=O [PMA, phorbol 12-myristate 13-acetate]
ICAM-1 labeling of differentiated macrophages [1]: strong ICAM-1 labeling
phagocytosis of 2 μm fluorescent beads [2]: engulfment of one-to-multiple beads
